For test [1], the target named is T1, GLS1 (purified recombinant human GAC) (Homo sapiens, UniProt O94925).
T1 sequence (O94925 55-598 isoform O94925-3 limits assumed): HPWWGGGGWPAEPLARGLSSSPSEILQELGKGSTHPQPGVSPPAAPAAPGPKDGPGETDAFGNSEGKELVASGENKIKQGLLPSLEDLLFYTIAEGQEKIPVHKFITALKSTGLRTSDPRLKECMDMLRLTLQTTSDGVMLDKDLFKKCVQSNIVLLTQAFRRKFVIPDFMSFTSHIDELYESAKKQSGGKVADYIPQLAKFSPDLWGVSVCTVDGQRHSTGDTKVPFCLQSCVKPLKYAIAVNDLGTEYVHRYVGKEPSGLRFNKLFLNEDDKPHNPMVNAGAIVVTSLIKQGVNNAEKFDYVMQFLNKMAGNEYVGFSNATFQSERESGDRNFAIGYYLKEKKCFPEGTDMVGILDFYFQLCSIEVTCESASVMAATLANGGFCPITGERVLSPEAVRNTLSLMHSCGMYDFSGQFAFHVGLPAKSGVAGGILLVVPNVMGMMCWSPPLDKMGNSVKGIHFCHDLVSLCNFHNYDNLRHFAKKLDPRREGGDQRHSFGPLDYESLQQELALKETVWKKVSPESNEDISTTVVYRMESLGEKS
Kind of test: GLS1 enzymatic activity assay (dual-coupled, Amplex UltraRed/resorufin). The class given is biochemical. In short, it runs like this:
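Recombinant human GAC (2 nM) preincubated with 50 mM potassium phosphate, then inhibitor (10 min each, RT); 1 mM glutamine, pH 7.4 Hepes buffer, 1% DMSO. Glutamate coupled via glutamate oxidase/HRP to resorufin (Ex 530/Em 590), kinetic or 20-min endpoint; IC50 by four-parameter logistic fit.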

In another test the test system is A549 cells. Nature of the test: A549 proliferation (viability) assay, Cell Titer Fluor, 72 hours. The conditions noted are these: Homo sapiens. It is filed as cell-based. A digest of the protocol: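 Seed A549 at 1000 cells/well and culture 24 h. Add compound (final DMSO 0.5%) and incubate 72 h at 37 °C. Add Cell Titer Fluor, mix 15 min, incubate 30 min, read fluorescence and fit EC50 by four-parameter logistic.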

In general, IC50 refers to the concentration at which inhibition is half-maximal. For orientation: EC50 means the concentration needed to bring the measured effect to its halfway point. Consider `CC1CCCN(C(=O)C(=O)Nc2ccn(CCC(F)Cn3cc(C(=O)NCc4cccc(OC(F)(F)F)c4)nn3)c(=O)c2F)C1` (centres unmarked) [Example 418, 1-(2-fluoro-4-{3-fluoro-4-[2-(3-methylpiperidin-1-yl)-2-oxoacetamido]-2-oxo-1,2-dihydropyridin-1-yl}butyl)-N-{[3-(trifluoromethoxy)phenyl]methyl}-1H-1,2,3-triazole-4-carboxamide], for which, in test [1], the IC50 was less than 100 nM. The compound also displayed an EC50 in the test on A549 cells of less than 100 nM.
In the case of `O=C(Nc1ccn(CCC(F)Cn2cc(C(=O)NCc3cccc(OC(F)(F)F)c3)nn2)c(=O)c1F)C(=O)N1CCCC(C(F)(F)F)C1` (centres unmarked) [Example 419, 1-[2-fluoro-4-(3-fluoro-2-oxo-4-{2-oxo-2-[3-(trifluoromethyl)piperidin-1-yl]acetamido}-1,2-dihydropyridin-1-yl)butyl]-N-{[3-(trifluoromethoxy)phenyl]methyl}-1H-1,2,3-triazole-4-carboxamide], the half-maximal inhibitory concentration (IC50) in test [1] is less than 100 nM. Moreover, in the test with A549 cells, the EC50 is less than 100 nM.
Turning to `N#CC1CCCN(C(=O)C(=O)Nc2ccn(CCC(F)Cn3cc(C(=O)NCc4cccc(OC(F)(F)F)c4)nn3)c(=O)c2F)C1` (centres unmarked) [Example 420, 1-(4-{4-[2-(3-cyanopiperidin-1-yl)-2-oxoacetamido]-3-fluoro-2-oxo-1,2-dihydropyridin-1-yl}-2-fluorobutyl)-N-{[3-(trifluoromethoxy)phenyl]methyl}-1H-1,2,3-triazole-4-carboxamide], the IC50 in test [1] is less than 100 nM. Besides, in the test with A549 cells, the concentration for a half-maximal effect (EC50) was in the range of 500 to 5000 nM.
For the compound `O=C(Nc1ccn(CCC(F)Cn2cc(C(=O)NCc3cccc(C(F)(F)F)c3)nn2)c(=O)c1F)C(=O)N1CCCCC1` (centres unmarked) [Example 421, 1-(2-fluoro-4-{3-fluoro-2-oxo-4-[2-oxo-2-(piperidin-1-yl)acetamido]-1,2-dihydropyridin-1-yl}butyl)-N-{[3-(trifluoromethyl)phenyl]methyl}-1H-1,2,3-triazole-4-carboxamide], the concentration for half-maximal inhibition (IC50) in test [1] is less than 100 nM. The same compound had a concentration giving a half-maximal response (EC50) in the test with A549 cells of less than 100 nM.
In the case of `O=C(Nc1ccn(CCC(F)Cn2cc(C(=O)NCc3cc(OC(F)(F)F)ccc3F)nn2)c(=O)c1F)C(=O)N1CCCCC1` (centres unmarked) [Example 422, 11-(2-fluoro-4-(3-fluoro-2-oxo-4-(2-oxo-2-(piperidin-1-yl)acetamido)pyridin-1(2H)-yl)butyl)-N-(2-fluoro-5-(trifluoromethoxy)benzyl)-1H-1,2,3-triazole-4-carboxamide], in test [1], the IC50 was less than 100 nM. In addition, in the test with A549 cells, the EC50 was less than 100 nM.
Take `O=C(Nc1ccn(CCC(F)Cn2cc(C(=O)NCc3cc(C(F)(F)F)ccn3)nn2)c(=O)c1F)C(=O)N1CCCCC1` (centres unmarked) [Example 423, 1-(2-fluoro-4-{3-fluoro-2-oxo-4-[2-oxo-2-(piperidin-1-yl)acetamido]-1,2-dihydropyridin-1-yl}butyl)-N-{[4-(trifluoromethyl)pyridin-2-yl]methyl}-1H-1,2,3-triazole-4-carboxamide]: the IC50 in test [1] was less than 100 nM. This compound had an EC50 in the test on A549 cells of 100 to 500 nM.
Take `O=C(Nc1ccn(CCC(F)Cn2cc(C(=O)NCc3cccc(OC(F)(F)F)c3)nn2)c(=O)c1F)C(=O)N1CC2(CCC2)C1` (centres unmarked) [Example 424, 1-{4-[4-(2-{2-azaspiro[3.3]heptan-2-yl}-2-oxoacetamido)-3-fluoro-2-oxo-1,2-dihydropyridin-1-yl]-2-fluorobutyl}-N-{[3-(trifluoromethoxy)phenyl]methyl}-1H-1,2,3-triazole-4-carboxamide]: the IC50 in test [1] is less than 100 nM. Also, the EC50 in the test on A549 cells lay in the range of 100 to 500 nM.
For the compound `CCN(CC)C(=O)C(=O)Nc1ccn(CCC(F)Cn2cc(C(=O)NCc3cccc(OC(F)(F)F)c3)nn2)c(=O)c1F` (centres unmarked) [Example 425, N,N-diethyl-N′-(3-fluoro-1-{3-fluoro-4-[4-({[3-(trifluoro-methoxy)phenyl]methyl}carbamoyl)-1H-1,2,3-triazol-1-yl]butyl}-2-oxo-1,2-dihydropyridin-4-yl)ethanediamide], the IC50 in test [1] was less than 100 nM. In addition, the EC50 in the test on A549 cells fell in the range of 100 to 500 nM.
As for `O=C(Nc1ccn(CCC(F)Cn2cc(C(=O)NCc3cccc(OC(F)(F)F)c3)nn2)c(=O)c1F)C(=O)N1CCCC(O)C1` (centres unmarked) [Example 426, 1-(2-fluoro-4-{3-fluoro-4-[2-(3-hydroxypiperidin-1-yl)-2-oxoacetamido]-2-oxo-1,2-dihydropyridin-1-yl}butyl)-N-{[3-(trifluoromethoxy)phenyl]methyl}-1H-1,2,3-triazole-4-carboxamide], the IC50 in test [1] was less than 100 nM. The same compound came in with an EC50 with A549 cells of 500 to 5000 nM.
Turning to `O=C(Nc1ccn(CCC(F)Cn2cc(C(=O)NCc3ccccn3)nn2)c(=O)c1F)C(=O)N1CCCCC1` (centres unmarked) [Example 427, 1-(2-fluoro-4-{3-fluoro-2-oxo-4-[2-oxo-2-(piperidin-1-yl)acetamido]-1,2-dihydropyridin-1-yl}butyl)-N-(pyridin-2-ylmethyl)-1H-1,2,3-triazole-4-carboxamide], the half-maximal inhibitory concentration (IC50) in test [1] was 500 to 5000 nM. For the same compound, the EC50 in the test on A549 cells fell in the range of 500 to 5000 nM.
With `CC1(C)CN(C(=O)C(=O)Nc2ccn(CCC(F)Cn3cc(C(=O)NCc4cccc(OC(F)(F)F)c4)nn3)c(=O)c2F)C1` (centres unmarked) [Example 428, 1-(4-{4-[2-(3,3-dimethylazetidin-1-yl)-2-oxoacetamido]-3-fluoro-2-oxo-1,2-dihydropyridin-1-yl}-2-fluorobutyl)-N-{[3-(trifluoromethoxy)phenyl]methyl}-1H-1,2,3-triazole-4-carboxamide], in test [1], the IC50 was less than 100 nM. Besides, the EC50 in the test with A549 cells is less than 100 nM.
As for `CNC(=O)c1cn(CC(F)CCn2ccc(NC(=O)C(=O)N3CCCCC3)c(F)c2=O)nn1` (centres unmarked) [Example 429, 1-(2-fluoro-4-{3-fluoro-2-oxo-4-[2-oxo-2-(piperidin-1-yl)acetamido]-1,2-dihydropyridin-1-yl}butyl)-N-methyl-1H-1,2,3-triazole-4-carboxamide], the IC50 in test [1] is 500 to 5000 nM. In the test on A549 cells, this compound registered a 50% effective concentration (EC50) of 500 to 5000 nM.
Regarding `Nc1ccn(CCC(F)Cn2cc(C(=O)NCc3cc(OC(F)(F)F)ccc3F)nn2)c(=O)c1F` (centres unmarked) [Example 430, 1-[4-(4-amino-3-fluoro-2-oxo-1,2-dihydropyridin-1-yl)-2-fluorobutyl]-N-{[2-fluoro-5-(trifluoromethoxy)phenyl]methyl}-1H-1,2,3-triazole-4-carboxamide], the IC50 in test [1] is 500 to 5000 nM. In the test with A549 cells, this compound registered an EC50 of more than 5000 nM.
With `C[C@@H]1CCN(C(=O)C(=O)Nc2ccn(CCC(F)Cn3cc(C(=O)NCc4cc(OC(F)(F)F)ccc4F)nn3)c(=O)c2F)C1` (stereo partly drawn) [Example 431, 1-[2-fluoro-4-(3-fluoro-4-{2-[(3R)-3-methylpyrrolidin-1-yl]-2-oxoacetamido}-2-oxo-1,2-dihydropyridin-1-yl)butyl]-N-{[2-fluoro-5-(trifluoromethoxy)phenyl]methyl}-1H-1,2,3-triazole-4-carboxamide], the IC50 in test [1] is less than 100 nM. In the test with A549 cells, the EC50 is less than 100 nM.
As for `C[C@H]1CCN(C(=O)C(=O)Nc2ccn(CCC(F)Cn3cc(C(=O)NCc4cc(OC(F)(F)F)ccc4F)nn3)c(=O)c2F)C1` (stereo partly drawn) [Example 432, 1-[2-fluoro-4-(3-fluoro-4-{2-[(3S)-3-methylpyrrolidin-1-yl]-2-oxoacetamido}-2-oxo-1,2-dihydropyridin-1-yl)butyl]-N-{[2-fluoro-5-(trifluoromethoxy)phenyl]methyl}-1H-1,2,3-triazole-4-carboxamide], the IC50 in test [1] is less than 100 nM. This compound displayed an EC50 in the test on A549 cells of less than 100 nM.
For `COC1CCCN(C(=O)C(=O)Nc2ccn(CCC(F)Cn3cc(C(=O)NCc4cc(OC(F)(F)F)ccc4F)nn3)c(=O)c2F)C1` (centres unmarked) [Example 433, 1-(2-fluoro-4-{3-fluoro-4-[2-(3-methoxypiperidin-1-yl)-2-oxoacetamido]-2-oxo-1,2-dihydropyridin-1-yl}butyl)-N-{[2-fluoro-5-(trifluoromethoxy)phenyl]methyl}-1H-1,2,3-triazole-4-carboxamide], in test [1], the IC50 is less than 100 nM. Besides, the EC50 with A549 cells is 100 to 500 nM.
On to `O=C(Nc1ccn(CCC(F)Cn2cc(C(=O)NCc3cc(OC(F)(F)F)ccc3F)nn2)c(=O)c1F)C(=O)N1CCC[C@@H](C(F)(F)F)C1` (stereo partly drawn) [Example 434, 1-[2-fluoro-4-(3-fluoro-2-oxo-4-{2-oxo-2-[(3R)-3-(trifluoromethyl)piperidin-1-yl]acetamido)-1,2-dihydropyridin-1-yl)butyl]-N-{[2-fluoro-5-(trifluoromethoxy)phenyl]methyl}-1H-1,2,3-triazole-4-carboxamide], for which, in test [1], the IC50 is less than 100 nM. The EC50 in the test with A549 cells is less than 100 nM.
As to `O=C(Cc1ccccc1)Nc1ccn(CCCCc2nnc(C(=O)NCc3cccc(OC(F)(F)F)c3)s2)c(=O)c1` [Example 438, 5-{4-[2-oxo-4-(2-phenylacetamido)-1,2-dihydropyridin-1-yl]butyl}-N-{[3-(trifluoromethoxy)phenyl]methyl}-1,3,4-thiadiazole-2-carboxamide], the IC50 in test [1] was less than 100 nM. In the test on A549 cells, this compound showed a concentration giving a half-maximal response (EC50) of less than 100 nM.
Turning to `O=C(Cc1cccc(OC(F)(F)F)c1)Nc1ccn(CCCCc2nnc(C(=O)NCc3cccc(OC(F)(F)F)c3)s2)c(=O)c1` [Example 439, 5-[4-(2-oxo-4-{2-[3-(trifluoromethoxy)phenyl]acetamido}-1,2-dihydropyridin-1-yl)butyl]-N-{[3-(trifluoromethoxy)phenyl]methyl}-1,3,4-thiadiazole-2-carboxamide], in test [1], the IC50 is less than 100 nM. Moreover, the EC50 with A549 cells was less than 100 nM.

Values taken from US20160002204A1 (Board of Regents, The University of Texas System, priority 2014, published 2016).
